Laboratory results as given in ChEMBL document CHEMBL5543174, “A Nonbactericidal Anionic Antimicrobial Peptide Provides Prophylactic and Therapeutic Efficacies against Bacterial Infections in Mice by Immunomodulatory-Antithrombotic Duality” (J Med Chem, 2024).
The source made the active and inactive calls. No cut-off for these calls is given here.

Legend:
Lymphocyte = test: Immunomodulatory activity in mouse spleen derived lymphocyte assessed as increase in lymphocyte proliferation at < 200 ug/ml incubated for 24 hrs by CCK-8 assay; format: functional, cell-based; conditions: dose < 200.0 µg/ml
Escherichia coli [1] = test: Antimicrobial activity against Escherichia coli ATCC 25922 assessed as inhibition of microbial growth at <= 200 ug/ml incubated for 18 hrs by micro-broth dilution method; format: functional, organism-based; conditions: dose <= 200.0 µg/ml
Klebsiella pneumoniae = test: Antimicrobial activity against Klebsiella pneumoniae ATCC 27736 assessed as inhibition of microbial growth at <= 200 ug/ml incubated for 18 hrs by micro-broth dilution method; format: functional, organism-based; conditions: dose <= 200.0 µg/ml
Salmonella paratyphi = test: Antimicrobial activity against Salmonella paratyphi ATCC 9150 assessed as inhibition of microbial growth at <= 200 ug/ml incubated for 18 hrs by micro-broth dilution method; format: functional, organism-based; conditions: Salmonella enterica subsp. enterica serovar Paratyphi A, dose <= 200.0 µg/ml
Staphylococcus aureus [2] = test: Antimicrobial activity against Methicillin-resistant Staphylococcus aureus assessed as inhibition of microbial growth at <= 200 ug/ml incubated for 18 hrs by micro-broth dilution method; format: functional, organism-based; conditions: dose <= 200.0 µg/ml
Escherichia coli [3] = test: Antimicrobial activity against Carbapenem-resistant Escherichia coli assessed as reduction in metabolic activity at < 200 ug/ml incubated for 1 to 4 hrs by CCK-8 assay; format: functional, organism-based; conditions: dose < 200.0 µg/ml, time 1-4 hrs
Escherichia coli [4] = test: Antibacterial activity against Carbapenem-resistant Escherichia coli infected in C57BL/6 mouse assessed as reduction in bacterial load at 10 mg/kg,ip administrated 5 hrs after bacterial infection; format: functional, organism-based
Staphylococcus aureus [5] = test: Antibacterial activity against Staphylococcus aureus ATCC 25923 infected in C57BL/6 mouse assessed as reduction in IL-6 level in peritoneal fluid at 10 mg/kg,ip pre-administrated 5 hrs before bacterial infection measured after 24 hrs by ELISA; format: functional, organism-based; conditions: time 29.0 hrs
Staphylococcus aureus [6] = test: Antibacterial activity against Staphylococcus aureus ATCC 25923 infected in C57BL/6 mouse assessed as reduction in IL-1beta level in peritoneal fluid at 10 mg/kg,ip administrated 5 hrs after bacterial infection measured after 24 hrs by ELISA; format: functional, organism-based; conditions: time 19.0 hrs
Escherichia coli [7] = test: Antibacterial activity against Carbapenem-resistant Escherichia coli infected in C57BL/6 mouse assessed as reduction in IL-1beta level in peritoneal fluid at 10 mg/kg,ip pre-administrated 5 hrs before bacterial infection measured after 24 hrs by ELISA; format: functional, organism-based; conditions: time 29.0 hrs
Staphylococcus aureus [8] = test: Antibacterial activity against Staphylococcus aureus ATCC 25923 infected in C57BL/6 mouse assessed as reduction in IL-1beta level in serum at 10 mg/kg,ip administrated 5 hrs after bacterial infection measured after 24 hrs by ELISA; format: functional, organism-based; conditions: time 19.0 hrs
Escherichia coli [9] = test: Antibacterial activity against Escherichia coli ATCC 25922 infected in C57BL/6 mouse assessed as reduction in TNF-alpha level in serum at 10 mg/kg,ip pre-administrated 5 hrs before bacterial infection measured after 24 hrs by ELISA; format: functional, organism-based; conditions: time 29.0 hrs
Staphylococcus aureus [10] = test: Antibacterial activity against Methicillin-resistant Staphylococcus aureus infected in C57BL/6 mouse assessed as reduction in TNF-alpha level in serum at 10 mg/kg,ip pre-administrated 5 hrs before bacterial infection measured after 24 hrs by ELISA; format: functional, organism-based; conditions: time 29.0 hrs
Staphylococcus aureus [11] = test: Antibacterial activity against Methicillin-resistant Staphylococcus aureus infected in C57BL/6 mouse assessed as reduction in TNF-alpha level in serum at 10 mg/kg,ip administrated 5 hrs after bacterial infection measured after 24 hrs by ELISA; format: functional, organism-based; conditions: time 19.0 hrs
Escherichia coli [12] = test: Antibacterial activity against Carbapenem-resistant Escherichia coli infected in C57BL/6 mouse assessed as reduction in IL-6 level in serum at 10 mg/kg,ip pre-administrated 5 hrs before bacterial infection measured after 24 hrs by ELISA; format: functional, organism-based; conditions: time 29.0 hrs
Mus musculus [13] = test: Immunomodulatory activity in cyclophosphamide immunosuppressed C57BL/6 mouse with neutrophil depletion model assessed as increase in number of neutrophil in peritoneal lavage at 10 mg/kg,ip administration measured after 12 hrs by flow cytometry; format: functional, organism-based
Mus musculus [14] = test: Immunomodulatory activity in cyclophosphamide immunosuppressed C57BL/6 mouse with neutrophil depletion model assessed as increase in number of neutrophil in peritoneal lavage at 10 mg/kg,ip administration measured after 24 hrs by flow cytometry; format: functional, organism-based
Mus musculus [15] = test: Immunomodulatory activity in cyclophosphamide immunosuppressed C57BL/6 mouse with neutrophil depletion model assessed as change in T-lymphocytes in peritoneal lavage at 10 mg/kg,ip administration measured after 5 to 24 hrs by flow cytometry; format: functional, organism-based; conditions: time 5-24 hrs
Mus musculus [16] = test: Immunomodulatory activity in cyclophosphamide immunosuppressed C57BL/6 mouse with neutrophil depletion model assessed as change in B-lymphocytes in peritoneal lavage at 10 mg/kg,ip administration measured after 5 to 24 hrs by flow cytometry; format: functional, organism-based; conditions: time 5-24 hrs
Peritoneal macrophage [17] = test: Induction of chemotaxis in mouse Peritoneal macrophage assessed as increase in macrophage migration incubated for 8 hrs by crystal violet staining based indirect transwell assay; format: functional, cell-based
Peritoneal macrophage [18] = test: Immunomodulatory activity in mouse Peritoneal macrophage assessed as decrease in LPS-induced IL-1beta production at 25 to 100 ug/ml incubated for 6 hrs by ELISA; format: functional, cell-based; conditions: dose 25-100 µg/ml
Neutrophil [19] = test: Induction of degranulation in mouse bone marrow derived neutrophil assessed as increase in BPI release at 25 to 100 ug/ml incubated for 6 hrs by ELISA; format: functional, cell-based; conditions: dose 25-100 µg/ml
[20] = test system: Peritoneal macrophage cell; test: Induction of chemotaxis in mouse Peritoneal macrophage assessed as increase in macrophage migration at 100 ug/ml preincubated with KN62 for 30 mins followed by compound addition measured after 8 hrs by crystal violet staining based indirect transwell assay; format: functional, cell-based; conditions: dose 100.0 µg/ml
Neutrophil [21] = test: Induction of chemotaxis in mouse bone marrow derived neutrophil assessed as increase in neutrophil migration at 100 ug/ml preincubated with WRW4 for 30 mins followed by compound addition measured after 8 hrs by crystal violet staining based indirect transwell assay; format: functional, cell-based; conditions: dose 100.0 µg/ml
Peritoneal macrophage [22] = test: Immunoregulatory activity in mouse Peritoneal macrophage assessed as upregulation of JNK phosphorylation incubated for 1 hr by Western blotting analysis; format: functional, cell-based
Peritoneal macrophage [23] = test: Immunoregulatory activity in mouse Peritoneal macrophage assessed as upregulation of p65 phosphorylation incubated for 1 hr by Western blotting analysis; format: functional, cell-based
Mus musculus [24] = test: Antithrombotic activity in BALB/c mouse dorsal skin defect model assessed as increase in skin bleeding time at 10 mg/kg,SC administration; format: functional, organism-based
Plasma = test: Anticoagulation activity in human platelet poor plasma assessed as elongation of activated partial thromboplastin time at 100 ug/ml measured after 5 mins; format: functional, cell-free; conditions: dose 100.0 µg/ml
Mus musculus [25] = test: Anticoagulation activity in mouse infected with Carbapenem-resistant Escherichia coli assessed as increase in plasma APC expression at 10 mg/kg,ip administrated 5 hrs after bacterial infection measured after 24 hrs by ELISA; format: functional, organism-based; conditions: time 19.0 hrs
Staphylococcus aureus [26] = test: Antibacterial activity against Methicillin-resistant Staphylococcus aureus infected in C57BL/6 mouse with cyclophosphamide-induced neutrophil depletion model assessed as reduction of bacterial burden in peritoneal cavity at 10 mg/kg,ip pre-administrated 5 hrs before bacterial infection measured after 24 hrs; format: functional, organism-based; conditions: time 29.0 hrs
Escherichia coli [27] = test: Antibacterial activity against Carbapenem-resistant Escherichia coli infected in C57BL/6 mouse with cyclophosphamide-induced neutrophil depletion model assessed as decrease in bacterial burden in peritoneal cavity at 10 mg/kg,ip administrated 5 hrs after bacterial infection measured after 24 hrs; format: functional, organism-based; conditions: time 19.0 hrs

CC[C@H](C)[C@H](NC(=O)[C@@H]1CSSC[C@H](NC(=O)[C@H](CCC(=O)O)NC(=O)[C@@H](NC(=O)[C@H](CCCCN)NC(=O)[C@H](Cc2c[nH]cn2)NC(=O)[C@@H](NC(=O)[C@H](CCCCN)NC(=O)[C@H](CCC(=O)O)NC(=O)[C@H](C)NC(=O)[C@H](CCC(=O)O)NC(=O)[C@H](CCC(=O)O)NC(=O)[C@H](CCC(=O)O)NC(=O)[C@H](C)N)[C@@H](C)O)[C@@H](C)O)C(=O)N[C@@H](CC(C)C)C(=O)N[C@@H](CCC(=O)O)C(=O)N1)C(=O)N[C@@H](Cc1ccccc1)C(=O)N[C@H](C(=O)N[C@@H](CC(C)C)C(=O)N[C@@H](CC(C)C)C(=O)N1CCC[C@H]1C(=O)N1CCC[C@@H]1C(=O)N[C@H](C)C(=O)O)[C@@H](C)O
Activity (Lymphocyte): inactive | Activity (Escherichia coli [1]): inactive | Activity (Klebsiella pneumoniae): inactive | Activity (Salmonella paratyphi): inactive | Activity (Staphylococcus aureus [2]): inactive | Activity (Escherichia coli [3]): inactive | Activity (Escherichia coli [4]): Active | Activity (Staphylococcus aureus [5]): Active | Activity (Staphylococcus aureus [6]): Active | Activity (Escherichia coli [7]): Active | Activity (Staphylococcus aureus [8]): Active | Activity (Escherichia coli [9]): Active | Activity (Staphylococcus aureus [10]): Active | Activity (Staphylococcus aureus [11]): Active | Activity (Escherichia coli [12]): Active | Activity (Mus musculus [13]): Active | Activity (Mus musculus [14]): inactive | Activity (Mus musculus [15]): inactive | Activity (Mus musculus [16]): inactive | Activity (Peritoneal macrophage [17]): Dose-Dependent Effect | Activity (Peritoneal macrophage [18]): inactive | Activity (Neutrophil [19]): Active | Activity [20]: Active | Activity (Neutrophil [21]): Active | Activity (Peritoneal macrophage [22]): Dose-Dependent Effect | Activity (Peritoneal macrophage [23]): Dose-Dependent Effect | Activity (Mus musculus [24]): inactive | Activity (Plasma): inactive | Activity (Mus musculus [25]): Active | Activity (Staphylococcus aureus [26]): inactive | Activity (Escherichia coli [27]): inactive
